Assay results taken from US20150224164A1, “TREATMENT OF AUTISM SPECTRUM DISORDERS USING GLYCYL-L-2-METHYLPROLYL-L-GLUMATIC ACID” (Neuren Pharmaceuticals Limited, priority 2013, published 2015).
Where two headings read alike, the source gives them in different places. Where a SMILES comes first, the peptide text is derived from it.

Columns and labels:
fmr1 knockout mice [1] = experiment: Social behavior, bouts of sniffing, fmr1 knockout mice; assay type: in vivo, mouse; conditions: 100 mg/kg i.p. 28-day
Procedure: G-2-MePE was administered at the dose of 100 mg/kg i.p. in 0.1 ml saline, once daily for 28 days. Vehicle-treated animals were injected with 0.1 ml saline daily for 28 days. Thereafter, drug or vehicle treatments were stopped and animals were tested on successive days until all tests were completed. Finally, the animals were sacrificed for determining expression of pAkt and pERK Mice are a social species, which engage in easily scored social behaviors including approaching, following, sniffing, allogrooming, aggressive encounters, sexual interactions, parental behaviors, nesting and sleeping in a group huddle. In the present studies, social recognition and social memory in mice were evaluated by assessing the amount of time spent sniffing a novel mouse upon repeated exposures, to induce familiarity, and reinstatement of high levels of sniffing when a novel stimulus animal is introduced.

gastrointestinal cells = conditions: cited from earlier work
fmr1 knockout mice [2] = experiment: Contextual fear conditioning, fmr1 knockout mice; assay type: in vivo, mouse; conditions: fmr1 KO; 100 mg/kg i.p. 28 days
Procedure: G-2-MePE was administered at the dose of 100 mg/kg i.p. in 0.1 ml saline, once daily for 28 days. Vehicle-treated animals were injected with 0.1 ml saline daily for 28 days. Thereafter, drug or vehicle treatments were stopped and animals were tested on successive days until all tests were completed. Finally, the animals were sacrificed for determining expression of pAkt and pERK
Contextual fear conditioning is the most basic of the conditioning (learning) procedures. It involves placing the animal in a novel environment (dark chamber), providing an aversive stimulus (a 1-sec electric shock at 0.2 mA to the paw), and then removing it. […] Freezing is a species-specific response to fear and is defined as absence of movement except for respiration.
The clinical manifestation of Fragile X Syndrome is mental retardation in which learning and memory may be profoundly impaired. We tested G-2-MePE and vehicle treated fmr1 KO and wild-type animals in a fear-conditioning task in which we measured freezing behavior in response to context. […] Before the test, we observed the mice for their reactions to a 1-sec foot shock at 0.2 mA, and we noted vocalizations, jumping behavior, and excessive running in both genotypes as evidence that they had detected the stimulus.

[3] = Pharmacokinetic studies, plasma half-life; assay type: in vivo; conditions: rat
Procedure: The ability of the rats to remember or to relearn the original platform location was tested four weeks after original training. This means that residual drug would have been washed out for a minimum of 7 days in the case of the 3-week pumps, and 21 days in the case of the 1-week pumps. The retention testing procedure was identical to that of acquisition. Pharmacokinetic studies indicate that the plasma concentration of subcutaneously administered G-2-MePE rose to a peak and then declined with an approximately first order kinetic pattern, with a plasma half-life (t ½) of between about 30 and 60 minutes. Thus, by the time the retention study was performed, at least 7 days after removal of the G-2-MePE containing minipumps, nearly all of the G-2-MePE had been cleared from the animals' circulation.

fmr1 knockout mice [4] = experiment: Elevated plus maze, fmr1 knockout mice; assay type: in vivo, mouse
Procedure: G-2-MePE was administered at the dose of 100 mg/kg i.p. in 0.1 ml saline, once daily for 28 days. Vehicle-treated animals were injected with 0.1 ml saline daily for 28 days. Thereafter, drug or vehicle treatments were stopped and animals were tested on successive days until all tests were completed. Finally, the animals were sacrificed for determining expression of pAkt and pERK The Elevated Plus Maze (EPM) is a further test system for examining anxiety and locomotor activity. The EPM was built according to the description of Lister (Lister 1987). Briefly, the maze consisted of two open and two closed arms opposite each other in a plus shape, raised above floor height. The open arms were more exposed and therefore more anxiogenic. Wild-type mice therefore spent more time in the closed arms and visited them more. Mice were tested for 5 min and their behaviour was recorded. Measures taken included time spent in the arms and the center of the maze, and number of arm entries.

17 month old rats = experiment: 8-arm radial maze, spatial working memory; assay type: in vivo, rat; conditions: for WCC8-12 score, improvement across days: 9-day washout
From the text: The apparatus consists of a central platform communicating with 8 identical arms, each with a food cup at the end of the arm Rats were partially food-deprived for at least 10 days prior to, and throughout the radial maze procedure. The maze was assembled and positioned so that the experimenter could clearly observe the rats' behavior from a predetermined location. The experimenter numbered the arms of the maze according to their orientation from one to eight in a clock-wise direction. On day one the doors were inserted into the arms and each rat was confined in the central platform with 20 food pellets for 5 minutes. […] The following day the rats were allowed five minutes to explore the whole maze. All arms were baited with two food pellets in the food cup located at the end of each arm, and one pellet at both the entrance and middle of each arm. This was repeated for at least five, but up to eight days for rats that explored fewer than eight arms in two consecutive sessions. […] At this point it was decided that one of the old rats that had made only one arm entry on eight of the nine days should be excluded from future testing in this procedure. Otherwise all rats were included regardless of the amount of exploring they performed in pre-training. […] 30 days before the test (five days after pre-training) the 17 Male Wistar month old rats were implanted (under halothane anesthesia) with sub-cutaneous mini-osmotic pumps (Alzet) to dispense drug continuously for 3 weeks. At the completion of the infusion the pumps were removed and the wounds re-sutured (9-day washout allowed). The treatment groups were: • 1. young controls (4 months old), n=6; • 2. saline n=10; • 3. G-2-MePE low dose (2.4 mg/kg/day) n=13 • 4. G-2-MePE high dose (12.4 mg/kg/day) n=5 Working memory testing commenced on the ninth day of washout. Rats received 10 daily training sessions over 12 days. […] The experimenter recorded the sequence of arm entries with pen and paper. […] The time taken to enter all eight arms, when this occurred, was recorded. […]

## C[C@@]1(C(=O)N[C@@H](CCC(=O)O)C(=O)O)CCCN1C(=O)CN [Example G-2-MePE, Glycyl-L-2-methylprolyl-L-glutamic acid] (HELM PEPTIDE1{G.[C[C@@]1(C(=O)[*:2])CCCN1[*:1]].E}$$$$V2.0)
fmr1 knockout mice [1]; fmr1 KO
  heightened sniffing of the presented mouse: nullified
fmr1 knockout mice [1]; wild-type group
  sniffing: no significant effect
Gastrointestinal cells
  degradation by gastrointestinal cells: not degraded
  uptake by gastrointestinal cells: taken up
fmr1 knockout mice [2]
  freezing behavior, contextual fear conditioning: normalizes the deficit
[3]; in vivo, read-out: plasma half-life in vivo
  half-life: ~30 min
[3]; sc, subcutaneously administered, read-out: plasma half-life (t 1/2)
  half-life: 30 to 60 min
fmr1 knockout mice [4]; 100 mg/kg i.p. 28 days
  percent open arm entries: completely normalised
fmr1 knockout mice [4]; 28-days treatment
  time spent in the centre: normalised
17 month old rats; high dose 12.4 mg/kg/day s.c. pump 3 weeks
  WCC8-12 score, improvement across days: showed the greatest improvement across days
17 month old rats; higher dose vs vehicle, p<0.05
  correct maze choices averaged across days: more correct entries
17 month old rats; low dose 2.4 mg/kg/day s.c. pump 3 weeks
  WCC8-12 score, improvement across days: very little difference
